Data on two compounds can be found in publication PMC8330100, “Similarities and differences in the localization, trafficking, and function of P-glycoprotein in MDR1-EGFP-transduced rat versus human brain capillary endothelial cell lines” (Fluids and Barriers of the CNS, 2021).

Data set [1] concerns Pgp expression in RBE4 cells. Put plainly: Western blot of Pgp expression, RBE4 cells. Format: cell-based, rat. The protocol: (§1) Piet Borst (The Netherlands Cancer Institute, Amsterdam, The Netherlands) as template. The linker sequence in the vector fusing EGFP and MDR1 consists of 36 bp ([…]). hCMEC/D3-WT, RBE4-WT, and hCMEC/D3-MDR1-EGFP cell lines were cultivated as previously described. The same culture conditions were used for the newly prepared RBE4-MDR1-EGFP cell line. As described previously, hydrocortisone (1.4 µM) was added to the culture medium to enhance the expression and functionality of Pgp and transendothelial resistance. All endothelial cell lines were grown on rat-tail collagen I (60 µg/mL, Gibco) coated 100 mm cultures dishes or permeable membrane supports at 37 °C and 5% CO2. Pgp-EGFP protein expression in MDR1-EGFP transduced cells was induced by cell cultivation in medium containing […] doxycycline. Expression of Pgp-EGFP was regularly verified by observing the cells with an inverted fluorescence microscope. Doxycycline supplementation of the medium was maintained during the whole culturing period of Pgp-EGFP expressing cells. For experiments, hCMEC/D3 and RBE4 cells were seeded in a density of 50,000 cells/cm^2. […]
(§2) Pgp expression in immortalized cell lines, primary cells, and brain capillaries was evaluated by western blotting.
For orientation: A western blot detects proteins with antibodies after separation by electrophoresis.

In data set [2] the test system is Pgp expression in hCMEC/D3 cells. In words: Western blot of Pgp expression, hCMEC/D3 cells. Format: cell-based, human. How it is done:
as §1, §2

The target of data set [3] is T1, Pgp in RBE4-MDR1-EGFP cells (Homo sapiens, UniProt P08183).
T1 construct: expressed in transfected cells; host or cells: RBE4 (rat BCEC line), lentiviral transduction, doxycycline-inducible
Put plainly: Rhodamine 123 uptake/accumulation assay, RBE4-MDR1-EGFP cells. The class given is cell-based, rat. Conditions: RBE4-MDR1-EGFP in the presence of doxycycline; tariquidar 0.5 µM. How it is done: as §1, with “cells/cm^2. Immortalized MDR1 transfected porcine kidney LLC-PK1 (LLC-MDR1) cells, which were used as a reference standard for vectorial transport experiments, were kindly provided by Prof. Piet Borst.” for “cells/cm^2.”

For a further data set, the system named is Pgp in primary rBCECs. Put plainly: Rhodamine 123 uptake/accumulation assay, primary rBCECs. Format: cell-based, rat. The following applies: tariquidar 0.5 µM, P < 0.0001. An excerpt:
The RBE4 and hCMEC/D3 cell lines used here are immortalized, which has the advantage that these cells are stable for several passages and may yield a large number of endothelial cells with the same genetic and phenotypical characteristics. The immortalization status, however, causes several alterations as compared to the native original cell type, including low junctional tightness of cell monolayers and reduced expression of efflux transporters such as Pgp. Therefore, for comparison with the MDR1-EGFP transduced rat RBE4 cells, experiments were also performed with primary cultured rat brain capillary endothelial cells (rBCECs). As described by us previously, rBCECs were prepared following a protocol by Régina et al. and Perrière et al. from 2 to 3 weeks old Wistar rats (obtained from Charles River; Sulzfeld, Germany). All animals were treated according to protocols evaluated and approved by the ethical committee of our university. In short, meninges were removed from cerebral cortices in phosphate-buffered saline (PBS) with 1% penicillin (100 U/mL)/streptomycin (100 μg/mL) (Biochrom AG) on ice. Subsequently, cortices were mechanically dissociated with scalpels. […]
The functionality of Pgp in RBE4-WT, RBE4-MDR1-EGFP, hCMEC/D3-WT, hCMEC/D3-MDR1-EGFP cells, and primary rBCECs was analyzed by measuring the uptake of the fluorescent Pgp substrate Rho123 (Sigma-Aldrich). […] Intracellular Rho123 concentration was determined by cell lysis in standard lysis buffer (25 mM Tris, 50 mM NaCl, 0.5% (w/v) sodium deoxycholate, 0.5% (w/v) Triton X-100) and measurement of fluorescence intensity with the FLUOstar OPTIMA (ex.: 485 nm, em.: 520 nm; BMG Labtech). Protein concentrations were determined using a BCA assay kit (Thermo Fisher Scientific). Rho123 uptake was obtained for each condition in triplicates and calculated as absolute fluorescence per mg protein. Additionally, Pgp functionality was expressed as multidrug resistance activity factor (MAF) as described by Huber et al.. […]

In another data set the target is T2, Pgp in hCMEC/D3-WT cells (Homo sapiens, UniProt P08183).
T2 construct: endogenous in cells; host or cells: hCMEC/D3-WT
In words: Rhodamine 123 uptake/accumulation assay, hCMEC/D3-WT cells. Conditions: tariquidar 0.5 µM. The class given is cell-based.

For a further data set, the system named is Pgp in RBE4-WT cells. In words: Rhodamine 123 uptake/accumulation assay, RBE4-WT cells. The class given is cell-based, rat. The following applies: tariquidar 0.5 µM. How it is done:
The functionality of Pgp in RBE4-WT, RBE4-MDR1-EGFP, hCMEC/D3-WT, hCMEC/D3-MDR1-EGFP cells, and primary rBCECs was analyzed by measuring the uptake of the fluorescent Pgp substrate Rho123 (Sigma-Aldrich). Cells were grown on 6-well plates and cultured for seven days in the presence or absence of doxycycline (1 µg/mL, Biochrom). […] Afterward, Rho123 (5 µM, dissolved in ethanol) was added and cells were incubated for another two hours. Rho123 transport was terminated by washing the cells twice with ice-cold PBS. Intracellular Rho123 concentration was determined by cell lysis in standard lysis buffer (25 mM Tris, 50 mM NaCl, 0.5% (w/v) sodium deoxycholate, 0.5% (w/v) Triton X-100) and measurement of fluorescence intensity with the FLUOstar OPTIMA (ex.: 485 nm, em.: 520 nm; BMG Labtech). Protein concentrations were determined using a BCA assay kit (Thermo Fisher Scientific). Rho123 uptake was obtained for each condition in triplicates and calculated as absolute fluorescence per mg protein. Additionally, Pgp functionality was expressed as multidrug resistance activity factor (MAF) as described by Huber et al.. This factor describes Pgp efflux activity based on differences in intracellular Rho123 accumulation in cells after Pgp inhibition compared to cells with active Pgp-mediated efflux. Thus, higher MAF values correlate with increased Pgp activity. For better comparison, differences in Rho123 accumulation are normalized to intracellular Rho123 levels in inhibitor-treated cells. MAF values for Pgp were calculated according to Huber et al. 2012 utilizing the following equation: MAF (%) = 100 · (MFITQ − MFI0)/(MFITQ) where MFITQ and MFI0 represent the mean fluorescence intensity of intracellular Rho123 in tariquidar (TQ)-treated and non-treated cells, respectively.

T1 sequence (P08183 with tags, fused parts or gaps): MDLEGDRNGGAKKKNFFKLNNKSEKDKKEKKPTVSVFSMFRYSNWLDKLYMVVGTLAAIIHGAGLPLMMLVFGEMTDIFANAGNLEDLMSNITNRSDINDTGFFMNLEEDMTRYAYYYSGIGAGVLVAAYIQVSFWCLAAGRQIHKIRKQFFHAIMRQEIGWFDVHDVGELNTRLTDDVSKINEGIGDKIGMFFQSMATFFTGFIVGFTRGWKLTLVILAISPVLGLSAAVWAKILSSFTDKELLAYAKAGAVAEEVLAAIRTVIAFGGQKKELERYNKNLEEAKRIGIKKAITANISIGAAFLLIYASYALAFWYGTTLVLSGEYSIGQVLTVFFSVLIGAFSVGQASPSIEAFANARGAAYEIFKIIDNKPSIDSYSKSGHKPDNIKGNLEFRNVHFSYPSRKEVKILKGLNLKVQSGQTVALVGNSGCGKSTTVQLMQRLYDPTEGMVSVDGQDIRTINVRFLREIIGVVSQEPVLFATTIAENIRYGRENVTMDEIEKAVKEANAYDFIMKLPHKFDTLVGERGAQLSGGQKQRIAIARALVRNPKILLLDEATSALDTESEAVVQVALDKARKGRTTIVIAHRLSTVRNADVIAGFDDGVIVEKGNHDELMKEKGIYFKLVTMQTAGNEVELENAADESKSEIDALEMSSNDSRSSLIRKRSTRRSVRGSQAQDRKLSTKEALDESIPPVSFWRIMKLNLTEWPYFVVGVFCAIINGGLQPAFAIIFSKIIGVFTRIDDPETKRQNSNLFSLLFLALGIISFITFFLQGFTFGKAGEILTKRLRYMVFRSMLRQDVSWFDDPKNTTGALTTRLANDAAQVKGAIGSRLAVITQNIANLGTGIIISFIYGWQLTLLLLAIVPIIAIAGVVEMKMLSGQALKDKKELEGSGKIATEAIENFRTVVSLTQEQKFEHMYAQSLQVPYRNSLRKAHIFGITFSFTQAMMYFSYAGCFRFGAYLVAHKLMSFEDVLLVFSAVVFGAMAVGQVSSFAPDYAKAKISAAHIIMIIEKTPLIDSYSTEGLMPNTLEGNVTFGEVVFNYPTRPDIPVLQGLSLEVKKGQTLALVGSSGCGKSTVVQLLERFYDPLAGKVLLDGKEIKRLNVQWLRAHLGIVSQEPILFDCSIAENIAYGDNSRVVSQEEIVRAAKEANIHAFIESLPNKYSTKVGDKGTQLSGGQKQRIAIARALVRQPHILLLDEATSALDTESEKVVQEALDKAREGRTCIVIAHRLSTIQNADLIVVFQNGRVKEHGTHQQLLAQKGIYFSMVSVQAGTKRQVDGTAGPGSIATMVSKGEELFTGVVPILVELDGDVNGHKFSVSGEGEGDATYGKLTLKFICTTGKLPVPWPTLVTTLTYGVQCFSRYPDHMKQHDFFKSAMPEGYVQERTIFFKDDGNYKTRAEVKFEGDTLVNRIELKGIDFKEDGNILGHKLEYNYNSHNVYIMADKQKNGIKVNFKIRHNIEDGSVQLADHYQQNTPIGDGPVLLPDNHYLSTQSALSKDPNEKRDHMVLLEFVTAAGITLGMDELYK
T2 sequence (P08183 whole entry): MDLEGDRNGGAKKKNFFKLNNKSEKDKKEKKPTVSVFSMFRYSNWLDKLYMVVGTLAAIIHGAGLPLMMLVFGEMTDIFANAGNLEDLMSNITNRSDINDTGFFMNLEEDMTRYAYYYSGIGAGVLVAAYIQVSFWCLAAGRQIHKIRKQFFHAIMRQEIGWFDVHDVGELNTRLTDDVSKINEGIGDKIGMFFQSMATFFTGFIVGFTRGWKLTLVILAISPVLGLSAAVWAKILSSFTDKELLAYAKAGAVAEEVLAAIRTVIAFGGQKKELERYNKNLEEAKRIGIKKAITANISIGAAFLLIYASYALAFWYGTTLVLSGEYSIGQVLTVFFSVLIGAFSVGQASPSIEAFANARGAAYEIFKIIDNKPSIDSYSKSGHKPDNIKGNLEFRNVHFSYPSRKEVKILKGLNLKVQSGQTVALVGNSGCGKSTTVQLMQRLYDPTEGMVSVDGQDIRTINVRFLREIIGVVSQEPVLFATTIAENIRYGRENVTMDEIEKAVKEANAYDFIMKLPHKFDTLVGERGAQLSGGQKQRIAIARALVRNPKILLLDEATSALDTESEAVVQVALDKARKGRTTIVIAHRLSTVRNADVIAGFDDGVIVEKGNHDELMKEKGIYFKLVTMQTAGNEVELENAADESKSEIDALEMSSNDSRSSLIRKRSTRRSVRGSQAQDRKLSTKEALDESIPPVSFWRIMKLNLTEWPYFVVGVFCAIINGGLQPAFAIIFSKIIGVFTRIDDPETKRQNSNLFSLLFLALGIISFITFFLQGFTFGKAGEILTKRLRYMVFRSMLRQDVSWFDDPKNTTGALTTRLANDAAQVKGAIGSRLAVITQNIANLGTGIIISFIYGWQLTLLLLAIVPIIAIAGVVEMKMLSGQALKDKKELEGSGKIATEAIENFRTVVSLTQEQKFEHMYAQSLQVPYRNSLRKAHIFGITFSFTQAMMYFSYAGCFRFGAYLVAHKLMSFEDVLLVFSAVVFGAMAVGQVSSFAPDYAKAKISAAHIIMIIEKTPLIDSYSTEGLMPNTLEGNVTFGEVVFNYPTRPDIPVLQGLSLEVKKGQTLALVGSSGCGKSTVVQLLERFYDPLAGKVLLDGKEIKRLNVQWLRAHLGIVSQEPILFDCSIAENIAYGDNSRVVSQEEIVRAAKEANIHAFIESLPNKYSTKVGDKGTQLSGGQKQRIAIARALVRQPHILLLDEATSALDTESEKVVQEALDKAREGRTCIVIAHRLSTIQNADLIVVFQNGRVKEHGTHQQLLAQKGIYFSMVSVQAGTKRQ
Protocol for Pgp in hCMEC/D3-WT cells: The functionality of Pgp in RBE4-WT, RBE4-MDR1-EGFP, hCMEC/D3-WT, hCMEC/D3-MDR1-EGFP cells, and primary rBCECs was analyzed by measuring the uptake of the fluorescent Pgp substrate Rho123 (Sigma-Aldrich). Cells were grown on 6-well plates and cultured for seven days in the presence or absence of doxycycline (1 µg/mL, Biochrom). […] Afterward, Rho123 (5 µM, dissolved in ethanol) was added and cells were incubated for another two hours. Rho123 transport was terminated by washing the cells twice with ice-cold PBS. […] Rho123 uptake was obtained for each condition in triplicates and calculated as absolute fluorescence per mg protein. Additionally, Pgp functionality was expressed as multidrug resistance activity factor (MAF) as described by Huber et al. [40]. This factor describes Pgp efflux activity based on differences in intracellular Rho123 accumulation in cells after Pgp inhibition compared to cells with active Pgp-mediated efflux. Thus, higher MAF values correlate with increased Pgp activity. […] MAF values for Pgp were calculated according to Huber et al. 2012 utilizing the following equation: MAF (%) = 100 · (MFITQ − MFI0)/(MFITQ) where MFITQ and MFI0 represent the mean fluorescence intensity of intracellular Rho123 in tariquidar (TQ)-treated and non-treated cells, respectively.

For the compound `C[C@H]1c2cccc(O)c2C(=O)C2=C(O)[C@]3(O)C(=O)C(C(N)=O)=C(O)[C@@H](N(C)C)[C@@H]3[C@@H](O)[C@@H]21` [dox, doxycycline], the “increase of Pgp expression in comparison to WT cells” value in data set [1] (RBE4-MDR1-EGFP in the presence of dox, normalized to β-actin) is 9 fold; in data set [2] (hCMEC/D3-MDR1-EGFP in the presence of dox, normalized to β-actin), “sevenfold”. Further, the “effect on Pgp expression in WT cells” value in data set [1] (RBE4-WT) and in data set [2] (hCMEC/D3-WT) was “did not affect” each time.
`COc1cc2c(cc1OC)CN(CCc1ccc(NC(=O)c3cc(OC)c(OC)cc3NC(=O)c3cnc4ccccc4c3)cc1)CC2` [tariquidar]: the “effect of Pgp inhibitor on increased Pgp-mediated Rho123 efflux” value in data set [3] is recorded as “could be inhibited”. For the same compound, the “effect of Pgp inhibitor in Rho123 uptake assay” value in the data set on Pgp in primary rBCECs was “significant effect”. Besides, the “effect of Pgp inhibitor on accumulation of Rho123” value at Pgp in hCMEC/D3-WT cells and with Pgp in RBE4-WT cells was “significantly increased” in each case.
